Values of other authors in patent US8691864B2, “Agents useful for reducing amyloid precursor protein and treating dementia and methods of use thereof” (priority 2000, dated 2014).

Tested on: βAPP and Aβ
Details: neuronal cells in vitro; Lahiri et al., 1998; cited from earlier work

With `Nc1c2c(nc3ccccc13)CCCC2` [tacrine] as the molecule, how does the “βAPP and Aβ” value read?
Its value is “decrease βAPP and Aβ”.
